This is an account of results in patent publication US10968227B2, “Isoquinoline ether compounds as mGluR4 allosteric potentiators, compositions, and methods of treating neurological dysfunction” (Vanderbilt University, priority 2016, dated 2021).

Series [1] addresses 2D6 (Homo sapiens (Human), UniProt P10635). The series can be described thus: CYP 2D6 inhibition. In kind it is in vitro ADME.
Series [2] has as its target 3A4 (Homo sapiens (Human), UniProt P08684). Nature of the series: CYP 3A4 inhibition. In kind it is in vitro ADME.
Series [3] addresses mGlu4 (Homo sapiens, UniProt Q14833). The series can be described thus: mGluR4 potentiation (PAM) fluorescence assay with EC20 agonist. In kind it is cell-based. Here is the method:
The disclosed compounds and compositions can be evaluated for their ability to act as a potentiator of metabotropic glutamate receptor activity, in particular mGluR4 activity, by any suitable known methodology known in the art. For example, Chinese Hamster Ovary (CHO) cells transfected with human mGluR4 or HEK cells co-transfected with rat mGuR4 and the G-protein regulated Inwardly Rectifying Potassium channel (GIRK) were plated in clear bottom assay plates for assay in a Hamamatsu FDSS Fluorometric Plate Reader. The cells were loaded with either a Ca2+-sensitive fluorescent dye or the thallium responsive dye and the plates were washed and placed into a suitable kinetic plate reader. For human mGuR4 assays, a fluorescence baseline was established for 3-5 seconds, the disclosed compounds were then added to the cells, and the response in cells was measured. Approximately two and a half minutes later, a concentration of mGuR4 orthosteric agonist (e.g. glutamate or L-AP4) eliciting approximately 20% (EC20) of the maximal agonist response was added to the cells, and the response was measured. Two minutes later, a concentration of mGluR4 agonist (e.g. glutamate or L-AP4) eliciting 80% (EC80) of the maximal agonist response was added to the cells, and the response was measured. […] If the compound acts as a noncompetitive antagonist, an IC50 value is determined by non-linear curve fitting. […]

Series [4] deals with 1A2 (Homo sapiens (Human), UniProt P05177). The series can be described thus: CYP 1A2 inhibition. In kind it is in vitro ADME.
Series [5] is described as follows: Human intrinsic and hepatic clearance. In kind it is in vitro ADME.
Series [6] is described as follows: Rat plasma fraction unbound. In kind it is in vitro ADME. As to conditions: read-out: Rat Fu Plasma.
The nature of series [7]: Brain-plasma partition. In kind it is in vivo. Particulars: rat; for unbound brain-to-plasma partition coefficient (Kp,uu): unbound brain-plasma ratio, read-out: Brain-Plasma Kp,ω.
Series [8] in a line: Human plasma fraction unbound. In kind it is in vitro ADME. Particulars: read-out: Human Fu Plasma.
The nature of series [9]: Rat brain fraction unbound. In kind it is in vitro ADME. Particulars: read-out: Rat Fu Brain.
The nature of series [10]: Rat intrinsic and hepatic clearance. In kind it is in vitro ADME.
Series [11] deals with 2C9 (Homo sapiens (Human), UniProt P11712). The series can be described thus: CYP 2C9 inhibition. In kind it is in vitro ADME.
Sequence of 2C9 (P11712 whole entry): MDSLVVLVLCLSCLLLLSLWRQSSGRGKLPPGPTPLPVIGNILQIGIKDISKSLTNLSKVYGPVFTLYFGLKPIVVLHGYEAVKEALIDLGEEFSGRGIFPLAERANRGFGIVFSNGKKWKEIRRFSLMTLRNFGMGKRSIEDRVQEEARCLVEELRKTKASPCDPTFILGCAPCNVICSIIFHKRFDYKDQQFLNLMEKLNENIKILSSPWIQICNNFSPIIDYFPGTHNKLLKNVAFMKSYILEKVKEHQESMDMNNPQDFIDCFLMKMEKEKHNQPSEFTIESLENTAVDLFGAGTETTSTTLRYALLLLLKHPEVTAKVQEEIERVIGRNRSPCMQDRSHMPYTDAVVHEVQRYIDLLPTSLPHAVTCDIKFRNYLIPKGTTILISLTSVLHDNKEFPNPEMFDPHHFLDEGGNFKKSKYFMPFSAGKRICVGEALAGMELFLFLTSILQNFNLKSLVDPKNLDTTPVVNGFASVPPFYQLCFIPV

Sequence of mGlu4 (Q14833 33-912 limits assumed): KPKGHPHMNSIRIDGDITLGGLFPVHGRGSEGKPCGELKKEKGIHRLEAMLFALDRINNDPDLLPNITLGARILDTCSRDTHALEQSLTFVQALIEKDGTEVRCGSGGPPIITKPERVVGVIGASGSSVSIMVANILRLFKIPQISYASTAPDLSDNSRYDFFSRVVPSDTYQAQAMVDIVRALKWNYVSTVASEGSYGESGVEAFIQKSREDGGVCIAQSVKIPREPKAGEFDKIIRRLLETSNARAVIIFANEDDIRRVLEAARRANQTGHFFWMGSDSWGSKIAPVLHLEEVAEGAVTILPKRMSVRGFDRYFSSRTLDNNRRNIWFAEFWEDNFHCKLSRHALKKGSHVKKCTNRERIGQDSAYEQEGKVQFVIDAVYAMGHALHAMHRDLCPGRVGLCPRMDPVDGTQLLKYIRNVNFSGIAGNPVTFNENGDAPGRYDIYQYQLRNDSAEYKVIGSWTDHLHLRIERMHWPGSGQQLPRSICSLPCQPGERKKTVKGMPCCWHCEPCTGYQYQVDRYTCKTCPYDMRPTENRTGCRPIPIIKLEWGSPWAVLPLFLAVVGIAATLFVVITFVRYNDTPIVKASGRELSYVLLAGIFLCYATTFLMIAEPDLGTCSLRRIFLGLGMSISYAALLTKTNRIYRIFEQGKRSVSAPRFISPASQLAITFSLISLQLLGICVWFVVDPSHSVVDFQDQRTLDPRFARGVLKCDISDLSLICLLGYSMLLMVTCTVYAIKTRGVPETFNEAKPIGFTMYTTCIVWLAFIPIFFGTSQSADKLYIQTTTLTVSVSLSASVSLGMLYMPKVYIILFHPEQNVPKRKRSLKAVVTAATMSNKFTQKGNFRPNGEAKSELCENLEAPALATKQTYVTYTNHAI
Sequence of 2D6 (P10635 whole entry): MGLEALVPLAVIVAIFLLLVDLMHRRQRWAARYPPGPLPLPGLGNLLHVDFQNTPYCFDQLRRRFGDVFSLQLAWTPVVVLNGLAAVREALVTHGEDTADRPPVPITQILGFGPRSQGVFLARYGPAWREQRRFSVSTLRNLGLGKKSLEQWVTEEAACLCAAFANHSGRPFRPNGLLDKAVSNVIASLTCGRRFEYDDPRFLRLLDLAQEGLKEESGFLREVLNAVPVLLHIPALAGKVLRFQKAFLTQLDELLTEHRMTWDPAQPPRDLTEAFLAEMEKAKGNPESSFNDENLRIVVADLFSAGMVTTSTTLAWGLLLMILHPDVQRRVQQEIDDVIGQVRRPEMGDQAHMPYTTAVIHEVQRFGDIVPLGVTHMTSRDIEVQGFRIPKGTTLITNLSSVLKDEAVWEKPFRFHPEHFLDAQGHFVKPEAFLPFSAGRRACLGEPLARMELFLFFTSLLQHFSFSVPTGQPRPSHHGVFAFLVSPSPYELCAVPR
Sequence of 3A4 (P08684 whole entry): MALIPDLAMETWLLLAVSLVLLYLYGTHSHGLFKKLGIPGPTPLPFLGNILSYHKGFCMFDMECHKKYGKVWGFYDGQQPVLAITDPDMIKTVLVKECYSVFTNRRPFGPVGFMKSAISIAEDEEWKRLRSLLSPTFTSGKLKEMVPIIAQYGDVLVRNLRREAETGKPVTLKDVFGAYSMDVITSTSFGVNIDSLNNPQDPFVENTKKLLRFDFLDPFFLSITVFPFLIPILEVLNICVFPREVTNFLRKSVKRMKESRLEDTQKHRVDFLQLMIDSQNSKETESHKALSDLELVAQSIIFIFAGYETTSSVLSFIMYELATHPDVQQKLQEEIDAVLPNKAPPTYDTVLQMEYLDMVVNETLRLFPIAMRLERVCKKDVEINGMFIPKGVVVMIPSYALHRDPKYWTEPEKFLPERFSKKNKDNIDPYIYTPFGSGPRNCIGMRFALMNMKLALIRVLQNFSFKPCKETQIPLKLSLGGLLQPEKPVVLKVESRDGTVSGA
Sequence of 1A2 (P05177 whole entry): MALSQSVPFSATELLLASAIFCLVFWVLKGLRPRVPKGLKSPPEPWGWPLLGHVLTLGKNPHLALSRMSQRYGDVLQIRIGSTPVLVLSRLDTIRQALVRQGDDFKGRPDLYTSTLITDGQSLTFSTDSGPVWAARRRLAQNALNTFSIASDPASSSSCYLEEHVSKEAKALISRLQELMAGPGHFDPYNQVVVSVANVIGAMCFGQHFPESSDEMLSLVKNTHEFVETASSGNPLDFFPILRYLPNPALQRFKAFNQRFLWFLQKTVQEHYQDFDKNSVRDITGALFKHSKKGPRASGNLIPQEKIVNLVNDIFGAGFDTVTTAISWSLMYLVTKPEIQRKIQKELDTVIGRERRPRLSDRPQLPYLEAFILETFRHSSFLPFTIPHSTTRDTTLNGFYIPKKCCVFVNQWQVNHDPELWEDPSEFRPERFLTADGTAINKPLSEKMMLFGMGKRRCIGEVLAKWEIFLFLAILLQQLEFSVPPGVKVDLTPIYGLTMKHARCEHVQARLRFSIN

For the compound `c1cnc2c(Nc3ccc4c(OCC5CCCCO5)nccc4c3)n[nH]c2c1` (stereo not drawn) [Compound 56], the half-maximal inhibitory concentration (IC50) in series [1] was 22.2 µM; in [2], 22.6 µM; in series [4], 8.43 µM; in series [11], 3.56 µM. The EC50 in series [3] came to 0.0788 µM. Moreover, the CLint scaled in series [5] stood at 72.3 mL/min/kg; in [10], 348 mL/min/kg. For the same compound, in [5], the “Human CLhep” value amounted to 16.3 mL/min/kg. Moreover, the fraction unbound in series [6] is 0.014; in [8] it was 0.007; in [9], 0.003. The Kp in series [7] turned out to be 1.09. Besides, the unbound brain-to-plasma partition coefficient (Kp,uu) in series [7] was 0.23. The “Rat CLhep” value in series [10] was found to be 58.3 mL/min/kg.
For `c1cc2cc(Nc3n[nH]c4nccnc34)ccc2c(OCC2CCCCO2)n1` (stereo not drawn) [Compound 57], the EC50 in series [3] turned out to be 0.0697 µM. Moreover, the figures for the intrinsic clearance (CLint scaled) in series [5] and in series [10] were 53.8 mL/min/kg and 211 mL/min/kg, respectively. In addition, the “Human CLhep” value in series [5] was 15.1 mL/min/kg. Also, the fraction unbound was 0.015 in series [6], 0.011 in [8] and 0.004 in series [9]. The Kp in series [7] is 0.89. The unbound brain-to-plasma partition coefficient (Kp,uu) in series [7] turned out to be 0.24. For the same compound, the “Rat CLhep” value in series [10] was determined as 52.6 mL/min/kg.

By IC50 is commonly meant the concentration at which inhibition is half-maximal. Low readings indicate greater potency, high ones weaker potency. For orientation: EC50 means the concentration at which the effect is half-maximal. As usually defined, the CLint scaled is the rate of metabolic loss divided by the concentration. Low values mean slow turnover, high ones rapid turnover. In general, Kp refers to tissue or fluid exposure divided by exposure in the circulation.
